Measurements published in patent US20210078988A1, “MODULATORS OF INDOLEAMINE 2,3-DIOXYGENASE” (GLAXOSMITHKLINE INTELLECTUAL PROPERTY DEVELOPMENT LIMITED, priority 2017, published 2021).

target: T1, indoleamine 2, 3-dioxygenase (IDO1) (Homo sapiens, UniProt P14902); test: PBMC IDO1 assay (kynurenine detection via mass spectrometry); type: cell-based; conditions: human PBMC stimulated with IFN-γ and LPS, 2 days, kynurenine by mass spectrometry; read-out: IDO1 PBMC pIC50 (converted)
T1 construct: human peripheral blood mononuclear cells (PBMC) (PB003F; host or cells: human PBMC stimulated with IFN-gamma and LPS
Outline: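 Human PBMCs (50,000/well) stimulated with IFN-γ 100 ng/ml and LPS 50 ng/ml were exposed to 11-point 3-fold compound dilutions for 2 days at 37 °C. Supernatant kynurenine was quantified by RapidFire MS relative to an internal standard; parallel CellTiter-Glo ATP luminescence measured cytotoxicity, with four-parameter curve fitting.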

T1 sequence (P14902 whole entry): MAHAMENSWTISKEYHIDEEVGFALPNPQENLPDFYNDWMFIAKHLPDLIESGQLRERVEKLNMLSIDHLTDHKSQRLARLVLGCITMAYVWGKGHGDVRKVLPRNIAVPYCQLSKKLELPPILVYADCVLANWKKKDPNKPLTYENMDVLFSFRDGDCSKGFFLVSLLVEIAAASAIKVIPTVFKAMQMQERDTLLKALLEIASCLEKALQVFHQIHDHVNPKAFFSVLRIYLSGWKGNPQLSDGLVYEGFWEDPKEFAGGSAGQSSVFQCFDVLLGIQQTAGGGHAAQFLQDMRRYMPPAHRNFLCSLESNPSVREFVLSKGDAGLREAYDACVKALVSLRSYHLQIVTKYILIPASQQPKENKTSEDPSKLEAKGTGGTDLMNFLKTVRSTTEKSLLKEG

IC50 | SMILES
15.8 nM | COc1ccc([C@@H](CC2CCN(C(=O)OC(C)(C)C)CC2)NC(=O)c2ccc(Cl)s2)cn1 [Example 70, (R)-tert-butyl 4-(2-(5-chlorothiophene-2-carboxamido)-2-(6-methoxypyridin-3-yl)ethyl)piperidine-1-carboxylate]
15.8 nM | CC(C)(C)OC(=O)N1CCC(CC(NC(=O)c2ccc(Br)c(F)c2)c2ccccc2)CC1 (centres unmarked) [Example 71, tert-butyl 4-(2-(4-bromo-3-fluorobenzamido)-2-phenylethyl)piperidine-1-carboxylate]
15.8 nM | CC(C)(C)OC(=O)N1CCC(CC(NC(=O)c2ccc(I)cc2)c2ccccc2)CC1 (centres unmarked) [Example 72, tert-butyl 4-(2-(4-iodobenzamido)-2-phenylethyl)piperidine-1-carboxylate]
15.8 nM | CN(C)c1nnc(C(CC2CCN(C(=O)OC(C)(C)C)CC2)NC(=O)c2ccc(Cl)s2)o1 (centres unmarked) [Example 73, tert-butyl 4-(2-(5-chlorothiophene-2-carboxamido)-2-(5-(dimethylamino)-1,3,4-oxadiazol-2-yl)ethyl)piperidine-1-carboxylate]
15.8 nM | CC(C)C(CC1CCN(C(=O)OC(C)(C)C)CC1)NC(=O)c1ccc(Br)cc1 (centres unmarked) [Example 74, tert-butyl 4-(2-(4-bromobenzamido)-3-methylbutyl)piperidine-1-carboxylate]
15.8 nM | CC(C)CC(CC1CCN(C(=O)OC(C)(C)C)CC1)NC(=O)c1ccc(Cl)cc1 (centres unmarked) [Example 75, tert-butyl 4-(2-(4-chlorobenzamido)-4-methylpentyl)piperidine-1-carboxylate]
15.8 nM | CC(C)CC(CC1CCN(C(=O)OC(C)(C)C)CC1)NC(=O)c1ccc(F)cc1 (centres unmarked) [Example 76, tert-butyl 4-(2-(4-fluorobenzamido)-4-methylpentyl)piperidine-1-carboxylate]
15.8 nM | O=C(NC(CC1CCN(C(=O)OC2CC2)CC1)c1ccccc1)c1ccc(Cl)cc1 (centres unmarked) [Example 77, cyclopropyl 4-(2-(4-chlorobenzamido)-2-phenylethyl)piperidine-1-carboxylate]
15.8 nM | CCc1ccc(C(=O)NC(CC2CCN(C(=O)OC(C)(C)C)CC2)C2CCCC2)s1 (centres unmarked) [Example 78, tert-butyl 4-(2-cyclopentyl-2-(5-ethylthiophene-2-carboxamido)ethyl)piperidine-1-carboxylate]
15.8 nM | CC(C)CC(CC1CCN(C(=O)OC(C)(C)C)CC1)NC(=O)c1ccc(F)s1 (centres unmarked) [Example 79, tert-butyl 4-(2-(5-fluorothiophene-2-carboxamido)-4-methylpentyl)piperidine-1-carboxylate]
15.8 nM | Cc1ccc(C(=O)NC(CC2CCN(C(=O)OC(C)(C)C)CC2)C2CCCCC2)s1 (centres unmarked) [Example 80, tert-butyl 4-(2-cyclohexyl-2-(5-methylthiophene-2-carboxamido)ethyl)piperidine-1-carboxylate]
15.8 nM | CCOC(=O)N1CCC(C[C@H](NC(=O)c2ccc(Cl)cc2)c2ccccc2)CC1 [Example 81, (S)-ethyl 4-(2-(4-chlorobenzamido)-2-phenylethyl)piperidine-1-carboxylate]
15.8 nM | CCN(CCOC)c1nnc(C(CC2CCN(C(=O)OC(C)(C)C)CC2)NC(=O)c2ccc(C)s2)o1 (centres unmarked) [Example 82, tert-butyl 4-(2-(5-(ethyl(2-methoxyethyl)amino)-1,3,4-oxadiazol-2-yl)-2-(5-methylthiophene-2-carboxamido)ethyl)piperidine-1-carboxylate]
15.8 nM | CC(C)(C)OC(=O)N1CCC(C[C@@H](CCNCc2ccccc2)NC(=O)c2ccc(Cl)s2)CC1 [Example 83, (S)-tert-butyl 4-(4-(benzylamino)-2-(5-chlorothiophene-2-carboxamido)butyl)piperidine-1-carboxylate]
20 nM | CC(C)(C)OC(=O)N1CCC(CC(NC(=O)c2ccc(Cl)c(F)c2)c2ccccc2)CC1 (centres unmarked) [Example 84, tert-butyl 4-(2-(4-chloro-3-fluorobenzamido)-2-phenylethyl)piperidine-1-carboxylate]
20 nM | CCOC(=O)N1CCC(CC(NC(=O)c2ccc(F)cc2)c2ccc(OC)nc2)CC1 (centres unmarked) [Example 85, ethyl 4-(2-(4-fluorobenzamido)-2-(6-methoxypyridin-3-yl)ethyl)piperidine-1-carboxylate]
20 nM | C#CCOc1ccc(C(=O)NC(CC2CCN(C(=O)OC(C)(C)C)CC2)c2ccccc2)cc1 (centres unmarked) [Example 86, tert-butyl 4-(2-phenyl-2-(4-(prop-2-yn-1-yloxy)benzamido)ethyl)piperidine-1-carboxylate]
20 nM | CCCc1ccc(C(=O)NC(CC2CCN(C(=O)OC(C)(C)C)CC2)c2ccccc2)s1 (centres unmarked) [Example 87, tert-butyl 4-(2-phenyl-2-(5-propylthiophene-2-carboxamido)ethyl)piperidine-1-carboxylate]
20 nM | CC(C)C(CC1CCN(C(=O)OC(C)(C)C)CC1)NC(=O)c1ccc(Cl)cc1 (centres unmarked) [Example 88, tert-butyl 4-(2-(4-chlorobenzamido)-3-methylbutyl)piperidine-1-carboxylate]

IC50 | SMILES
20 nM | CCCOC(=O)N1CCC(CC(NC(=O)c2ccc(Cl)cc2)c2ccccc2)CC1 (centres unmarked) [Example 89, propyl 4-(2-(4-chlorobenzamido)-2-phenylethyl)piperidine-1-carboxylate]
20 nM | CC(C)(C)OC(=O)N1CCC(C[C@H](NC(=O)c2ccc(Cl)cc2)C2CC2)CC1 [Example 90, (S)-tert-butyl 4-(2-(4-chlorobenzamido)-2-cyclopropylethyl)piperidine-1-carboxylate]
20 nM | CC(C)(C)OC(=O)N1CCC(CC(NC(=O)c2ccc(Br)cc2)C2CCCCC2)CC1 (centres unmarked) [Example 91, tert-butyl 4-(2-(4-bromobenzamido)-2-cyclohexylethyl)piperidine-1-carboxylate]
20 nM | CC(C)(C)OC(=O)N1CCC(CC(NC(=O)c2ccc(F)s2)C2CCCCC2)CC1 (centres unmarked) [Example 92, tert-butyl 4-(2-cyclohexyl-2-(5-fluorothiophene-2-carboxamido)ethyl)piperidine-1-carboxylate]
20 nM | Cc1ccc(C(=O)NC(CC2CCN(C(=O)C(F)(F)c3ccccc3)CC2)c2ccccc2)s1 (centres unmarked) [Example 93, N-(2-(1-(2,2-difluoro-2-phenylacetyl)piperidin-4-yl)-1-phenylethyl)-5-methylthiophene-2-carboxamide]
20 nM | Cc1ccc(C(=O)NC(CC2CCN(C(=O)C(F)(F)F)CC2)c2ccccc2)s1 (centres unmarked) [Example 94, 5-methyl-N-(1-phenyl-2-(1-(2,2,2-trifluoroacetyl)piperidin-4-yl)ethyl)thiophene-2-carboxamide]
20 nM | CCC(F)(F)C(=O)N1CCC(CC(NC(=O)c2ccc(C)s2)c2ccccc2)CC1 (centres unmarked) [Example 95, N-(2-(1-(2,2-difluorobutanoyl)piperidin-4-yl)-1-phenylethyl)-5-methylthiophene-2-carboxamide]
20 nM | CCCCN(CC)c1nnc(C(CC2CCN(C(=O)OC(C)(C)C)CC2)NC(=O)c2ccc(C)s2)o1 (centres unmarked) [Example 96, tert-butyl 4-(2-(5-(butyl(ethyl)amino)-1,3,4-oxadiazol-2-yl)-2-(5-methylthiophene-2-carboxamido)ethyl)piperidine-1-carboxylate]
25.1 nM | CC(C)(C)OC(=O)N1CCC(CC(NC(=O)c2ccc(C3CC3)cc2)c2ccccc2)CC1 (centres unmarked) [Example 97, tert-butyl 4-(2-(4-cyclopropylbenzamido)-2-phenylethyl)piperidine-1-carboxylate]
25.1 nM | CC(C)(C)OC(=O)N1CCC(CC(NC(=O)c2ccc(C3CC3)s2)c2ccccc2)CC1 (centres unmarked) [Example 98, tert-butyl 4-(2-(5-cyclopropylthiophene-2-carboxamido)-2-phenylethyl)piperidine-1-carboxylate]
25.1 nM | CC(C)C(CC1CCN(C(=O)OC(C)(C)C)CC1)NC(=O)c1ccc(Cl)s1 (centres unmarked) [Example 99, tert-butyl 4-(2-(5-chlorothiophene-2-carboxamido)-3-methylbutyl)piperidine-1-carboxylate]
25.1 nM | O=C(NC(CC1CCN(C(=O)OC2CCCC2)CC1)c1ccccc1)c1ccc(Cl)cc1 (centres unmarked) [Example 100, cyclopentyl 4-(2-(4-chlorobenzamido)-2-phenylethyl)piperidine-1-carboxylate]
25.1 nM | CC(C)(C)OC(=O)N1CCC(CC(NC(=O)c2ccc(I)c(F)c2)c2ccccc2)CC1 (centres unmarked) [Example 101, tert-butyl 4-(2-(3-fluoro-4-iodobenzamido)-2-phenylethyl)piperidine-1-carboxylate]
25.1 nM | CCOC(=O)N1CCC(CC(NC(=O)c2ccc(Cl)cc2)c2ccccc2)CC1 (centres unmarked) [Example 102, ethyl 4-(2-(4-chlorobenzamido)-2-phenylethyl)piperidine-1-carboxylate]
25.1 nM | CC(C)OC(=O)N1CCC(CC(NC(=O)c2ccc(Cl)cc2)c2ccccc2)CC1 (centres unmarked) [Example 103, isopropyl 4-(2-(4-chlorobenzamido)-2-phenylethyl)piperidine-1-carboxylate]
25.1 nM | O=C(NC(CC1CCN(C(=O)Oc2ccccc2)CC1)c1ccccc1)c1ccc(Cl)cc1 (centres unmarked) [Example 104, phenyl 4-(2-(4-chlorobenzamido)-2-phenylethyl)piperidine-1-carboxylate]
25.1 nM | O=C(NC(CC1CCN(C(=O)OCC2CC2)CC1)c1ccccc1)c1ccc(Cl)cc1 (centres unmarked) [Example 105, cyclopropylmethyl 4-(2-(4-chlorobenzamido)-2-phenylethyl)piperidine-1-carboxylate]
25.1 nM | CCc1ccc(C(=O)NC(CC2CCN(C(=O)OC(C)(C)C)CC2)C2CCCCC2)s1 (centres unmarked) [Example 106, tert-butyl 4-(2-cyclohexyl-2-(5-ethylthiophene-2-carboxamido)ethyl)piperidine-1-carboxylate]
31.6 nM | CC(C)(C)OC(=O)N1CCC(CC(NC(=O)c2ccc(F)cc2)c2ccccc2)CC1 (centres unmarked) [Example 107, tert-butyl 4-(2-(4-fluorobenzamido)-2-phenylethyl)piperidine-1-carboxylate]
